In patent US10981911B2, “Imidazopyrrolopyridine as inhibitors of the JAK family of kinases” (Janssen Pharmaceutica NV, priority 2016, dated 2021):

How the values were obtained:
Format in all cases: biochemical
Tyk2-JH1JH2 = Tyk2-JH1JH2 (Homo sapiens (Human), UniProt P29597, C1142A/C936A); test: Enzymatic inhibition assay (RapidFire HTMS), Tyk2; conditions: 50 μM ATP, 200 μM substrate
From the text: (§1) LC/MS grade Water and Acetonitrile (ACN), were purchased from HoneyWell, Burdick & Jackson (Muskegon, Mich., USA). Dimethylsulfoxide 99.8% (DMSO) and Trifluoroacetic Acid 99.5% (TFA) were purchased from EMD Chemical (Gibbstown, N.J., USA). Adenosine triphosphate (ATP), 4-Morpholinepropanesulfonic acid (MOPS), Magnesium chloride (MgCl2), ethylenediaminetetraacetic acid (EDTA), dithiothreitol (DTT), formic acid >95% (FA) and Tween-20 were purchased from Sigma (St Louis, Mo., USA). 384-well polypropylene plates, Cat #781280 were purchased from Greiner (Monroe, N.C.), RapidFire™ cartridge A C4 Column (Agilent Technologies, Santa Clara, Calif.).
(§2) The HTMS experiments were performed in positive ionization mode on a RapidFire 300 instrument (Agilent Technologies, Santa Clara, Calif.), coupled with an ABSiex QTrap 4000 system with an Electrospray Ionization source (RF-MS) (Concord, ON, Canada). […] The entire system was operated using the RapidFire software interfaced with Analyst software for the mass spectrometer.
(§3) 11-point dosing series were made for each compound by serially diluting 1:3 or 1:4 in DMSO, with point 12 being a DMSO control. From the serial dilution plates, sample was transferred to a 384 wells assay plate (#781280, Greiner, Monroe, N.C.) using Labcyte Echo (Sunnyvale, Calif.), or Biosero ATS (San Diego, Calif.). The compounds were tested in duplicate. Column 12 was used for positive controls, and column 24 contained negative controls with no enzyme added. A compound from our internal collection, with inhibitory activity for JAK isoforms, was used as a reference compound. The final concentration of DMSO was ≤0.25% in a 20 μL reaction. […] The Tyk2 enzyme was pre-incubated with 2 mM ATP for 30 min prior to the reaction initiation. Immediately after the addition of the enzyme to the reaction mixture, the plate was centrifuged at 1000 rpm for 1 minute and incubated at 25° C. for 45 minutes for JAK 3 and 90 minutes for JAK1, JAK2 and Tyk2. The reaction was quenched by the addition of 20 μL of 0.5% TFA containing 0.15 μM of internal standard peptide using Multidrop Combi reagent dispenser (Thermo Scientific, Waltham, Mass.). […] After the quench, the assay plate was centrifuged at 3000 rpm for 3 minutes and sealed with pierceable aluminum foil (Cat #06644-001, Agilent) using a PlateLoc (Agilent Technologies, Santa Clara, Calif.). The plates then were transferred on to the RapidFire for the MS analysis. Compound inhibition was assessed by a decrease of the phosphorylated product levels in sample wells compared to the non-inhibited enzyme reaction.
(§4) The sample analysis on the RapidFire was performed using a mobile phase A consisting of Water/TFA/FA (100:0.01:0.1, v/v/v), a mobile phase B consisting of ACN/Water/TFA/FA (80:20:0.01:0.1, v/v/v). […] The samples were aspirated directly from the 384 assay plate and delivered onto RF-MS microscale solid-phase C4 extraction cartridge (Type A). The undesired component such as salt, cofactor, detergent and large protein were washed out and the retained analytes (substrate, product and IS) were coeluted directly onto the ABSiex Qtrap 4000 system.

JAK3-JH1JH2 = JAK3-JH1JH2 (Homo sapiens (Human), UniProt P52333); test: Enzymatic inhibition assay (RapidFire HTMS), JAK3; conditions: 150 μM ATP, 40 μM substrate
From the text: as §1, §2
as §3, with “compound.” for “compound. The final concentration of DMSO was ≤0.25% in a 20 μL reaction.”
as §4

JAK1-JH1JH2 = JAK1-JH1JH2 (Homo sapiens (Human), UniProt P23458); test: Enzymatic inhibition assay (RapidFire HTMS), JAK1; conditions: 12.5 μM ATP, 200 μM substrate; read-out: JAK1-JH2JH1 IC50
From the text: as §1, §2, §3, §4

Tyk2-JH1JH2, sequence (P29597 580-1182 C936A/C1142A): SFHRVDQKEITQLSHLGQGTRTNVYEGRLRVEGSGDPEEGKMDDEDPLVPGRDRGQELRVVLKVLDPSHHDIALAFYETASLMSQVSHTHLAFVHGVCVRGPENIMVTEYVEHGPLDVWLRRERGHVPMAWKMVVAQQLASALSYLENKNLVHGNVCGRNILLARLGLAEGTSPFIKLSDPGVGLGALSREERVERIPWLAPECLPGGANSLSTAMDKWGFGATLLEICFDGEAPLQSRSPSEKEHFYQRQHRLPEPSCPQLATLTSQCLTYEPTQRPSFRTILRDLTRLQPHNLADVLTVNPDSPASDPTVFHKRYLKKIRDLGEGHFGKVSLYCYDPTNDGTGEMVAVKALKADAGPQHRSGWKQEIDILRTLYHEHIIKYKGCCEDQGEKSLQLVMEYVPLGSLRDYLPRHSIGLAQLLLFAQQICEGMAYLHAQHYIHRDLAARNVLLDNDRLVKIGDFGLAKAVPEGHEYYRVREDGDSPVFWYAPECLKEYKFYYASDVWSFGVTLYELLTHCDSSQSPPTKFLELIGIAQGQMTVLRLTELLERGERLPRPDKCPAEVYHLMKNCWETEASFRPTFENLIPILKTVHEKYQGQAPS
JAK3-JH1JH2, sequence (P52333 512-1124): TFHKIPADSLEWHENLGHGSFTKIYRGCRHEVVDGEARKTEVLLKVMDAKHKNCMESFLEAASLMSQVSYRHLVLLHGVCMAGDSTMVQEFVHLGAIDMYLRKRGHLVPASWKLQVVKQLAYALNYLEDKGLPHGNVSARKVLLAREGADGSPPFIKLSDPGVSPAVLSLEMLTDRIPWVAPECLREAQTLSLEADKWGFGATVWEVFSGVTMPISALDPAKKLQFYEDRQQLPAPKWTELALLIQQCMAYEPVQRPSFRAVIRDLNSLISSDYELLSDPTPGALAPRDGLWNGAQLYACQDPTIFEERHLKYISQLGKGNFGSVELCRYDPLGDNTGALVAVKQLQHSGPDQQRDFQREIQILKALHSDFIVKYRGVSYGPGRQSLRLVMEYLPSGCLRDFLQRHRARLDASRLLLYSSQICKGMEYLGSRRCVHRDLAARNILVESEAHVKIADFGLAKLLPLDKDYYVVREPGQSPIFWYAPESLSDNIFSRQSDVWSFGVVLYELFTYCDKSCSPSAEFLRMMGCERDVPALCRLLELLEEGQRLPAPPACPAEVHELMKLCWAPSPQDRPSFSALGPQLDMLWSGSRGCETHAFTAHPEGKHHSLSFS
JAK1-JH1JH2, sequence (P23458 574-1154): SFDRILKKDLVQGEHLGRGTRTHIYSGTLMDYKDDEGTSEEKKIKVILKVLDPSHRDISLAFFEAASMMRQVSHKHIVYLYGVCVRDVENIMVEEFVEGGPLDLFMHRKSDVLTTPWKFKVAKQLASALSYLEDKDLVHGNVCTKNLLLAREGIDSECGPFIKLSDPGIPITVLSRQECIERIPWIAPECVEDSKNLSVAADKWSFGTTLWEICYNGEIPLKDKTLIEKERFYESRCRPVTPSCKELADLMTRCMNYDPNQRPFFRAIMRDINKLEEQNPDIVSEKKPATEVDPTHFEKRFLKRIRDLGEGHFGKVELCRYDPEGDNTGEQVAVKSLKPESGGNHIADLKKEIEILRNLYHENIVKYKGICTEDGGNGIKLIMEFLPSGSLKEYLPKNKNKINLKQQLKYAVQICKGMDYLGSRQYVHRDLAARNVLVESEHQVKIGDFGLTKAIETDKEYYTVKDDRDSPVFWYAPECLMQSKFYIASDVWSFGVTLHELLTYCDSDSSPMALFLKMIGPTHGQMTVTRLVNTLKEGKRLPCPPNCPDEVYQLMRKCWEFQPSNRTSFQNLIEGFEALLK

Row | SMILES | IC50 (Tyk2-JH1JH2) | IC50 (JAK3-JH1JH2) | IC50 (JAK1-JH1JH2)
1 | N#CC[C@H]1CC[C@H](n2c(CC(=O)N3CCC(C(F)(F)F)CC3)nc3cnc4[nH]ccc4c32)CC1 [Ex. 6, 2-((1r,4r)-4-(2-(2-Oxo-2-(4-(trifluoromethyl)piperidin-1-yl)ethyl)imidazo[4,5-d]pyrrolo[2,3-b]pyridin-1(6H)-yl)cyclohexyl)acetonitrile] | 0.4 nM | 49.4 nM | –
2 | N#CC[C@H]1CC[C@H](n2c(-c3cocn3)nc3cnc4[nH]ccc4c32)CC1 [Ex. 11, 2-((1r,4r)-4-(2-(Oxazol-4-yl)imidazo[4,5-d]pyrrolo[2,3-b]pyridin-1(6H)-yl)cyclohexyl)acetonitrile] | 1.2 nM | 33.5 nM | 0.1 nM
3 | CC(C)(CO)CNC(=O)Cc1nc2cnc3[nH]ccc3c2n1[C@H]1CC[C@H](CC#N)CC1 [Ex. 15, 2-(1-((1r,4r)-4-(Cyanomethyl)cyclohexyl)-1,6-dihydroimidazo[4,5-d]pyrrolo[2,3-b]pyridin-2-yl)-N-(3-hydroxy-2,2-dimethylpropyl)acetamide] | – | 54.5 nM | 0.1 nM
4 | N#CC[C@H]1CC[C@H](n2c(-c3cn[nH]n3)nc3cnc4[nH]ccc4c32)CC1 [Ex. 16, 2-((1r,4r)-4-(2-(2H-1,2,3-Triazol-4-yl)imidazo[4,5-d]pyrrolo[2,3-b]pyridin-1(6H)-yl)cyclohexyl)acetonitrile] | 3.7 nM | 37.7 nM | 0.1 nM
5 | N#CC[C@H]1CC[C@H](n2c(CC(=O)NCC34CC5CC(CC(O)(C5)C3)C4)nc3cnc4[nH]ccc4c32)CC1 [Ex. 21, 2-(1-((1r,4r)-4-(Cyanomethyl)cyclohexyl)-1,6-dihydroimidazo[4,5-d]pyrrolo[2,3-b]pyridin-2-yl)-N-(((1S,3R,5R,7S)-3-hydroxyadamantan-1-yl)methyl)acetamide] | 3.5 nM | 55.1 nM | 0.1 nM
6 | N#CC[C@H]1CC[C@H](n2c(Cc3ccn[nH]3)nc3cnc4[nH]ccc4c32)CC1 [Ex. 25, 2-((1r,4r)-4-(2-((1H-Pyrazol-5-yl)methyl)imidazo[4,5-d]pyrrolo[2,3-b]pyridin-1(6H)-yl)cyclohexyl)acetonitrile] | 5.3 nM | 77.9 nM | 0.1 nM
7 | N#CC[C@H]1CC[C@H](n2c(CC(=O)NCc3ccccc3)nc3cnc4[nH]ccc4c32)CC1 [Ex. 48, N-Benzyl-2-(1-((1r,4r)-4-(cyanomethyl)cyclohexyl)-1,6-dihydroimidazo[4,5-d]pyrrolo[2,3-b]pyridin-2-yl)acetamide] | 11.2 nM | 193 nM | 0.2 nM
8 | N#CC[C@H]1CC[C@H](n2c(CC(=O)NC34CC5CC(CC(O)(C5)C3)C4)nc3cnc4[nH]ccc4c32)CC1 [Ex. 52, 2-(1-((1r,4r)-4-(Cyanomethyl)cyclohexyl)-1,6-dihydroimidazo[4,5-d]pyrrolo[2,3-b]pyridin-2-yl)-N-((1s,3r,5R,7S)-3-hydroxyadamantan-1-yl)acetamide] | 4.4 nM | 57.5 nM | 0.2 nM
9 | N#CC[C@H]1CC[C@H](n2c(CC(=O)NCC3CCCCC3)nc3cnc4[nH]ccc4c32)CC1 [Ex. 69, 2-(1-((1r,4r)-4-(Cyanomethyl)cyclohexyl)-1,6-dihydroimidazo[4,5-d]pyrrolo[2,3-b]pyridin-2-yl)-N-(cyclohexylmethyl)acetamide] | 15.6 nM | 111 nM | 0.3 nM
10 | N#CC[C@H]1CC[C@H](n2c(CNC(=O)Nc3ccccc3)nc3cnc4[nH]ccc4c32)CC1 [Ex. 70, 1-((1-((1r,4r)-4-(Cyanomethyl)cyclohexyl)-1,6-dihydroimidazo[4,5-d]pyrrolo[2,3-b]pyridin-2-yl)methyl)-3-phenylurea] | 9.4 nM | 108 nM | 0.4 nM
11 | C[Si](C)(C)C1CCC(c2nc3cnc4[nH]ccc4c3n2[C@H]2CC[C@H](CC#N)CC2)CC1 (stereo partly drawn) [Ex. 100, 2-((1r,4r)-4-(2-(4-(Trimethylsilyl)cyclohexyl)imidazo[4,5-d]pyrrolo[2,3-b]pyridin-1(6H)-yl)cyclohexyl)acetonitrile] | 2280 nM | > 6250 nM | 72 nM
12 | N#CC[C@H]1CC[C@H](n2c(CN/C(Cc3ccccc3)=N\O)nc3cnc4[nH]ccc4c32)CC1 [Ex. 103, (EZ)—N-((1-((1r,4r)-4-(Cyanomethyl)cyclohexyl)-1,6-dihydroimidazo[4,5-d]pyrrolo[2,3-b]pyridin-2-yl)methyl)-N-hydroxy-2-phenylacetimidamide] | 11.3 nM | 459 nM | 0.5 nM

Second part, the compound after the results:

Row | IC50 (Tyk2-JH1JH2) | IC50 (JAK3-JH1JH2) | IC50 (JAK1-JH1JH2) | SMILES
13 | 12.6 nM | 298 nM | 0.5 nM | N#CC[C@H]1CC[C@H](n2c(CC(=O)Nc3ccc(C(O)(C(F)(F)F)C(F)(F)F)cc3)nc3cnc4[nH]ccc4c32)CC1 [Ex. 104, 2-(1-((1r,4r)-4-(Cyanomethyl)cyclohexyl)-1,6-dihydroimidazo[4,5-d]pyrrolo[2,3-b]pyridin-2-yl)-N-(4-(1,1,1,3,3,3-hexafluoro-2-hydroxypropan-2-yl)phenyl)acetamide]
14 | 17.3 nM | 273 nM | 0.6 nM | CC(C)(O)CNC(=O)c1nc2cnc3[nH]ccc3c2n1[C@H]1CC[C@H](CC#N)CC1 [Ex. 117, 1-((1r,4r)-4-(Cyanomethyl)cyclohexyl)-N-(2-hydroxy-2-methylpropyl)-1,6-dihydroimidazo[4,5-d]pyrrolo[2,3-b]pyridine-2-carboxamide]
15 | 11.6 nM | 146 nM | 0.7 nM | N#CC[C@H]1CC[C@H](n2c(-c3cn[nH]c3)nc3cnc4[nH]ccc4c32)CC1 [Ex. 123, 2-((1r,4r)-4-(2-(1H-pyrazol-4-yl)imidazo[4,5-d]pyrrolo[2,3-b]pyridin-1(6H)-yl)cyclohexyl)acetonitrile]
16 | 19.1 nM | 65.9 nM | 0.9 nM | N#CC[C@H]1CC[C@H](n2c(C(=O)NCC3(O)CCCCCC3)nc3cnc4[nH]ccc4c32)CC1 [Ex. 136, 1-((1r,4r)-4-(Cyanomethyl)cyclohexyl)-N-((1-hydroxycycloheptyl)methyl)-1,6-dihydroimidazo[4,5-d]pyrrolo[2,3-b]pyridine-2-carboxamide]
17 | 19.4 nM | 175 nM | 1.1 nM | COCCNC(=O)c1nc2cnc3[nH]ccc3c2n1[C@H]1CC[C@H](CC#N)CC1 [Ex. 145, 1-((1r,4r)-4-(Cyanomethyl)cyclohexyl)-N-(2-methoxyethyl)-1,6-dihydroimidazo[4,5-d]pyrrolo[2,3-b]pyridine-2-carboxamide]
18 | – | 512 nM | 3.7 nM | N#CC[C@H]1CC[C@H](n2c(CO/N=C(\N)CN3CCCCC3)nc3cnc4[nH]ccc4c32)CC1 [Ex. 153, (Z*)—N′-((1-((1r,4r)-4-(Cyanomethyl)cyclohexyl)-1,6-dihydroimidazo[4,5-d]pyrrolo[2,3-b]pyridin-2-yl)methoxy)-2-(piperidin-1-yl)acetimidamide]
